Results taken from patent US10738024B2, “Compounds for treatment of angiogenesis-mediated diseases” (Indiana University Research and Technology Corporation, priority 2013, dated 2020).

Tests used:
[1] = test system: HRECs; assay: ALAMARBLUE proliferation assay in HRECs; type: cell-based, human; details: Homo sapiens, HREC; 50% growth inhibitory concentration, 48 hours, alamarBlue; read-out: GI50 HREC
Experimental: (§1) Particularly, in a 96-well clear bottom black plate, cells (2,500 cells per well) were seeded in a total volume of 100 μL EGM-2. After 24 hours of incubation of the plate at 37° C. and 5% CO2, a DMSO solution of synthetic cremastranone (1) or SH-11052 (2) was added in the concentration range of 0.5 nM to 500 μM (final DMSO concentration=1%). The plate was then further incubated for 48 hours before adding 11.1 μL of ALAMARBLUE® reagent to each well. Four hours after the addition of ALAMARBLUE®, fluorescence readings with excitation and emission wavelengths of 560 nm and 590 nm, respectively, were taken and the data were analyzed in GraphPad Prism software (v. 6.0). Dose response curves were generated and the GI50 values were calculated using the following equation: Y=100/(1+10^(X−Log GI50)).
(§2) For proliferation assays, cells (2500 per well) were seeded in a 96-well clear bottom black polystyrene plate in a total volume of 100 μL. HUVECs and HRECs were grown in EGM-2 and CSC+ media respectively, while 92-1 and Y79 cells were maintained in RPMI+10% FBS, penicillin/streptomycin and RB medium (IMDM+10% FBS+penicillin/streptomycin+10 μg/mL insulin+55 μM β-mercaptoethanol) respectively. After 24 hours of incubation of the plate at 37° C., the compounds were dissolved in DMSO and added in the concentration range of 500 μM to 0.5 nM. The plate was then incubated at 37° C. and 5% CO2 conditions for 48 hours before adding 11.1 μL of alamar blue reagent for each well. Four hours after the addition of ALAMARBLUE® reagent, fluorescence readings with excitation and emission wavelengths of 560 nm and 590 nm respectively were taken and the data was analyzed in GraphPad Prism software. The dose response curves were generated and the GI50 values were calculated using the equation: Y=100/(1+10^(X−Log GI50)) (Table 1).

[2] = test system: 92-1 uveal melanoma cells; assay: ALAMARBLUE proliferation assay in 92-1 uveal melanoma cells; type: cell-based; details: 50% growth inhibitory concentration, 48 hours, alamarBlue
Experimental: as §2

[3] = test system: HUVECs; assay: ALAMARBLUE proliferation assay in HUVECs; type: cell-based, human; details: Homo sapiens, HUVEC, 48 h, 50% growth inhibitory concentration, alamarBlue
Experimental: as §1, §2

[4] = test system: Y-79 retinoblastoma cells; assay: ALAMARBLUE proliferation assay in Y-79 retinoblastoma cells; type: cell-based; details: 50% growth inhibitory concentration, 48 hours
Experimental: as §2

[5] = test system: pathogenic neovascularization; details: in vivo; cited from earlier work
[6] = test system: TNF-α, IL-6 and IL-8; details: keratinocytes exposed to UV radiation; cited from earlier work
[7] = test system: reactive oxygen species (ROS); details: keratinocytes exposed to UV radiation; cited from earlier work
[8] = test system: retina; details: injection of 10 μM into the vitreous of normal adult mice; cited from earlier work
[9] = test system: HUVECs; details: cited from earlier work
[10] = test system: p21^WAF1 (CDKN1A); details: natural source compound; cited from earlier work
[11] = test system: prostaglandin synthesis; details: microsome assay; cited from earlier work
[12] = test system: cyclooxygenases 1 and 2; details: purified enzymes; cited from earlier work
[13] = test system: new vessel growth induced by bFGF; details: chick chorioallantoic membrane model; cited from earlier work
[14] = test system: Cdc2 (CDK1); details: cited from earlier work
[15] = test system: choroidal neovascularization; details: murine; cited from earlier work
[16] = test system: JNK, p38 MAPK, ERK; details: keratinocytes exposed to UV radiation; cited from earlier work
[17] = test system: NF-κB; details: keratinocytes exposed to UV radiation; cited from earlier work

GI50 [2]	GI50 [4]	SMILES	GI50 [1]	GI50 [3]	further results
11 µM	6 µM	COc1ccc(/C=C2\COc3cc(OC)c(OC)c(O)c3C2=O)cc1O [Compound 11q]	7 µM	5.4 µM	–
> 100 µM	6 µM	COC(=O)c1cc(/C=C2\COc3cc(OC)c(OC)c(OC)c3C2=O)ccc1OC [Compound 11r]	5.5 µM	3.2 µM	–
7 µM	10 µM	COc1ccc(/C=C2\COc3cc(OC)c(OC)c(OC)c3C2=O)cc1F [Compound 11s]	3.2 µM	7.6 µM	–
> 250 µM	109 µM	COc1cc2c(c(OC)c1OC)C(=O)/C(=C/c1ccc(OCc3ccccc3)c(OCc3ccccc3)c1)CO2 [Compound 11t]	160 µM	64 µM	–
> 250 µM	9 µM	COc1cc(/C=C2\COc3cc(OC)c(OC)c(OC)c3C2=O)cc(OC)c1OC [Compound 11u]	16.6 µM	10.4 µM	–
31 µM	18 µM	COc1cc2c(c(OC)c1OC)C(=O)/C(=C/c1cccc(Cl)c1Cl)CO2 [Compound 11v]	25.6 µM	10.4 µM	–
> 250 µM	154 µM	COc1ccc(/C=C2\COc3cc(OC)c(OC)c(OC)c3C2=O)c(OC)c1OC [Compound 11w]	91 µM	45 µM	–
29 µM	8 µM	COc1cc2c(c(OC)c1OC)C(=O)/C(=C/c1ccccc1[N+](=O)[O-])CO2 [Compound 11x]	8.6 µM	9 µM	–
145 µM	33 µM	COc1ccc(/C=C2\CCOc3cc(OC)c(OC)c(OC)c3C2=O)cc1O [Compound 12, (E)-4-(3-hydroxy-4-methoxybenzylidene)-6,7,8-trimethoxy-3,4-dihydrobenzo[b]oxepin-5(2H)-one]	35 µM	30 µM	–
80 µM	49 µM	COc1ccc(/C=C2\Cc3cc(OC)c(OC)c(OC)c3C2=O)cc1O [Compound 13, (E)-2-(3-hydroxy-4-methoxybenzylidene)-5,6,7-trimethoxy-2,3-dihydro-1H-inden-1-one]	30 µM	19 µM	–
6 µM	> 500 µM	COc1ccc(CN2CCc3cc(OC)c(OC)c(OC)c3C2=O)cc1OCc1ccccc1 [Compound 14, 2-(3-(Benzyloxy)-4-methoxybenzyl)-6,7,8-trimethoxy-3,4-dihydroisoquinolin-1(2H)-one]	103 µM	71 µM	–
78.5 µM	13.5 µM	COc1cc(OC)c2c(c1)OC/C(=C\c1ccc(OC)c(O)c1)C2=O [Compound 15a]	37 µM	17.7 µM	–
> 250 µM	4.2 µM	COc1cc(OC)c2c(c1)OCC(Cc1ccc(OC)c(O)c1)C2=O (stereo not shown) [Compound 15b]	1.6 µM	6.8 µM	–
–	–	COc1ccc(CC2COc3cc(O)c(OC)c(O)c3C2=O)cc1O (stereo not shown) [cremastranone, 5,7-dihydroxy-3-(3-hydroxy-4-methoxybenzyl)-6-methoxychroman-4-one]	–	–	blocking pathogenic neovascularization, oxygen-induced retinopathy model [5]: showed efficacy; production of cytokines TNF-α, IL-6 and IL-8 [6]: blocked; production of reactive oxygen species (ROS) [7]: blocked; apoptosis of retinal cells [8]: nor did it induce apoptosis; cytotoxic or inflammatory effects on the retina [8]: no cytotoxic or inflammatory effects; 50% growth inhibitory (GI50) concentration value in HUVEC proliferation assay ([9]; reported for compound isolated from C. appendiculata): low micromolar range; proliferation of HUVECs ([9]; via G2/M phase cell cycle arrest): blockade of the proliferation; expression of p21^WAF1 (CDKN1A) [10]: induces expression; prostaglandin synthesis from arachidonic acid [11]: blocked prostaglandin synthesis; function of cyclooxygenases 1 and 2 [12]: without marked effects; blocking new vessel growth induced by bFGF [13]: as effective as retinoic acid; expression of Cdc2 (CDK1) [14]: down-regulated; blocking pathogenic neovascularization, laser photocoagulation model of choroidal neovascularization [15]: showed efficacy; phosphorylation of MAPKs (JNK, p38, ERK) [16]: decreased phosphorylation; nuclear translocation of NF-κB [17]: blocked nuclear translocation
